# Source: patent US20050281821A1, “Method and composition for angiogenesis inhibition” (priority 1999, published 2005)
# Assays:
# [1] = tested on: protease produced by HUVEC that unmasks the cryptic site in type-IV collagen; assay: Unmasking of HUIV26 cryptic site in collagen type-IV by HUVEC conditioned media; format: biochemical, human
# Procedure: Microtiter plates were coated with extracellular matrix components, each at a concentration of 25 μg/ml. A). Mab HUIV26 was added at a concentration of 1 μg/ml, followed 1 hour later with goat anti-mouse peroxidase labeled IgG. Denatured collagen type-I and collagen type-IV were prepared by boiling for 15 minutes before coating the plates. All data were corrected for any non-specific binding of secondary antibody. Data bars represent the mean optical density (O.D.)±standard deviations from triplicate wells. B). Microtiter wells were coated with triple helical collagen type-IV at 25 μg/ml. Concentrated (20×) HUVEC conditioned media was added to the wells in the presence or absence of EDTA, aprotinin or both and allowed to incubate for 1, 6 and 24 hours. The plates were next washed, blocked and incubated with Mab HUIV26 or control antibody. All data were corrected for non-specific secondary antibody binding. Data bars represent the mean optical density (O.D.)±standard deviations from triplicate wells. The following abbreviations are used in the figure Coll-I, collagen type-I; Coll-IV, collagen type-IV.
# [2] = tested on: MX-1 human breast carcinoma cells; assay: Non-orthotopic MX-1 human breast tumor model; format: in vivo, SCID mice
# Procedure: A study was performed in the staged subcutaneous (non-orthotopic) MX-1 breast tumor model. Female, 7 week-old, SCID mice were injected in the dorsal right flank with 0.75×10^7 MX-1 human breast carcinoma cells in 100 μl of PBS. Treatments were initiated when MX-1 tumors grew to a mean volume of 115 mm^3. The animals were randomly divided into 5 treatment groups, each having 6-7 animals per group. Animals were treated with D93 (i.v., 2×/week) and/or Taxol 100 μl volume (i.p. 2×/week), as outlined below. One control group of animals remained untreated, and another received PBS (vehicle) only. The animals were treated for 25 days.
# Tumor size was measured every 7-20 days starting at first day-post randomization and continued until the end of the study. Measurements were recorded as (L×W^2)/2 where L is the length of the tumor or the largest diameter, and W is the width or shortest diameter. Animals were euthanized at the end of the study and final tumor measurements were recorded.
# MDA-MB-435 tumor cells = assay: Orthotopic MDA-MB-435 human breast tumor model in mice; format: in vivo, female nude mice
# Procedure: The effect of antibodies D93 and H8 in an orthotopic human breast tumor model was evaluated. MDA-MB-435 tumor cells (0.4×10^6 cells/mouse) in 50 μl PBS were orthotopically implanted in the mammary fat pad of female nude mice (five to six weeks old). When tumors reached a mean volume of approximately 50-80 mm^3, mice were randomized (at least 10/group) and intravenous treatment with D93 and H8 at 1 μg (0.05 mg/kg) per dose, 10 μg (0.5 mg/kg), 100 μg (5 mg/kg) or 200 μg (10 mg/kg), or 100 μg control antibody DP28 in 100 μl PBS, or vehicle PBS 100 μl twice per week was initiated; in some studies, an untreated group was also evaluated.
# Tumor sizes were measured every 7-20 days starting at the first day of treament and continued until day 50-80 post-treatment. Tumor length (L) and width (W) were measured with calipers and tumor volumes were calculated using the formula: (L×W^2)/2 where L was the length of the tumor or the largest diameter, and W was the width or shortest diameter. Animals were euthanized at the end of the study and final tumor measurements were recorded.
# The effect of combination treatment of D93 with Taxol was evaluated for eight weeks in the orthotopic MDA-MB-435 human breast tumor model in mice. MDA-MB-435 tumor cells were implanted into female nude mice as described in Example 20. Animals were randomized into seven treatment groups (n=12-13/group) with mean tumor volume 78 mm^3. D93 was administered at 100 μg/dose (5 mg/kg) twice weekly. Taxol was administered intraperitoneally at 3 or 6 mg/kg q.w. A vehicle control group of animals received PBS twice weekly and HBSS once weekly. Another control group received DP28 control antibody, administered at 100 μg/dose, twice weekly. Treatments with D93 and Taxol, as well as controls, were initiated on the same day (Day 1).
# Tumor sizes were measured every 7 days starting at the first day of treatment and continued until day 55 post-treatment. Measurements were recorded as (L×W^2)/2 where L is the length of the tumor or the largest diameter, and W is the width or shortest diameter. Animals were euthanized at the end of the study and the final measurements were recorded.
# In a study similar to that described in Example 21, Taxol was administered intraperitoneally at 6 or 10 mg/kg q.w. Animals were treated for 51 days.
# [3] = Table VI, D93 100 μg i.v. 2×/week and/or Taxol 6 mg/kg i.p. 2×/week
# [4] = Table IV, D93 or DP-28 100 μg i.v. 2×/week and/or Taxol 6 mg/kg i.p. 1×/week
# [5] = Table IV, Taxol 3 mg/kg i.p. 1×/week alone or with D93 100 μg i.v. 2×/week
# [6] = Table V, D93 or DP-28 100 μg i.v. 2×/week and/or Taxol 6 mg/kg i.p. 1×/week
# [7] = Table V, Taxol 10 mg/kg i.p. 1×/week alone or with D93 100 μg i.v. 2×/week
molecule,measurement,setting,value
O=C(O)CN(CCN(CC(=O)O)CC(=O)O)CC(=O)O [EDTA],effect on the HUVEC protease that unmasks the cryptic site in type-IV collagen,[1]; FIG. 11B,inhibited
"CC(=O)O[C@H]1C(=O)[C@@]2(C)[C@H]([C@H](OC(=O)c3ccccc3)[C@]3(O)C[C@H](OC(=O)[C@H](O)[C@@H](NC(=O)c4ccccc4)c4ccccc4)C(C)=C1C3(C)C)[C@]1(OC(C)=O)CO[C@@H]1C[C@@H]2O [Taxol, paclitaxel]",effect on tumor growth,"[2]; FIG. 39, D93 100 μg and/or Taxol 6 mg/kg, 25 days",inhibit tumor growth
same,"Tumor volume, Day 1",[2]; [3],119 mm^3
same,"Tumor volume, Day 5",[2]; [3],224.19 mm^3
same,"Tumor volume, Day 12",[2]; [3],602 mm^3
same,"Tumor volume, Day 19",[2]; [3],761.89 mm^3
same,"Tumor volume, Day 26",[2]; [3],1196 mm^3
same,inhibition of tumor volume compared to DP28,"MDA-MB-435 tumor cells; Example 21, D93 100 μg/dose twice per week and/or Taxol 6 mg/kg q.w.",42%
same,inhibition of tumor growth compared to DP-28,"MDA-MB-435 tumor cells; Example 21, Taxol 3 mg/kg q.w. alone or plus D93 100 μg/dose twice per week",6%
same,"Tumor volume, Day 1",MDA-MB-435 tumor cells; [4],78 mm^3
same,"Tumor volume, Day 8",MDA-MB-435 tumor cells; [4],203 mm^3
same,"Tumor volume, Day 27",MDA-MB-435 tumor cells; [4],315 mm^3
same,"Tumor volume, Day 34",MDA-MB-435 tumor cells; [4],399 mm^3
same,"Tumor volume, Day 41",MDA-MB-435 tumor cells; [4],530 mm^3
same,"Tumor volume, Day 48",MDA-MB-435 tumor cells; [4],688 mm^3
same,"Tumor volume, Day 54",MDA-MB-435 tumor cells; [4],793 mm^3
same,"Tumor volume, Day 55",MDA-MB-435 tumor cells; [4],787 mm^3
same,"Tumor volume, Day 1",MDA-MB-435 tumor cells; [5],78 mm^3
same,"Tumor volume, Day 8",MDA-MB-435 tumor cells; [5],257 mm^3
same,"Tumor volume, Day 27",MDA-MB-435 tumor cells; [5],361 mm^3
same,"Tumor volume, Day 34",MDA-MB-435 tumor cells; [5],476 mm^3
same,"Tumor volume, Day 41",MDA-MB-435 tumor cells; [5],604 mm^3
same,"Tumor volume, Day 48",MDA-MB-435 tumor cells; [5],815 mm^3
same,"Tumor volume, Day 54",MDA-MB-435 tumor cells; [5],1034 mm^3
same,"Tumor volume, Day 55",MDA-MB-435 tumor cells; [5],1275 mm^3
same,"Tumor volume, Day 1",MDA-MB-435 tumor cells; [6],58.55 mm^3
same,"Tumor volume, Day 21",MDA-MB-435 tumor cells; [6],210.6 mm^3
same,"Tumor volume, Day 32",MDA-MB-435 tumor cells; [6],392.04 mm^3
same,"Tumor volume, Day 39",MDA-MB-435 tumor cells; [6],559.9 mm^3
same,"Tumor volume, Day 45",MDA-MB-435 tumor cells; [6],771 mm^3
same,"Tumor volume, Day 51",MDA-MB-435 tumor cells; [6],866 mm^3
same,"Tumor volume, Day 1",MDA-MB-435 tumor cells; [7],58.6 mm^3
same,"Tumor volume, Day 21",MDA-MB-435 tumor cells; [7],196.5 mm^3
same,"Tumor volume, Day 32",MDA-MB-435 tumor cells; [7],361.56 mm^3
same,"Tumor volume, Day 39",MDA-MB-435 tumor cells; [7],487.05 mm^3
same,"Tumor volume, Day 45",MDA-MB-435 tumor cells; [7],672 mm^3
same,"Tumor volume, Day 51",MDA-MB-435 tumor cells; [7],820 mm^3
aprotinin,block of Mab HUIV26 reactivity observed in the absence of protease inhibitor,[1]; 6 hour time point,40%
same,block of Mab HUIV26 reactivity observed in the absence of protease inhibitor,[1]; 24 hour time point,70%
same,effect on unmasking of cryptic site(s) in type-IV collagen,[1]; one hour of incubation with HUVEC conditioned media,little effect
